Key:
HEK293 = assay: Cytotoxicity against Homo sapiens (human) HEK293 cells assessed as inhibition of cell proliferation after 24 hr by MTT assay; type: cell-based; settings: HEK293, 24 h
MCF7 = assay: Anticancer activity against Homo sapiens (human) MCF7 cells assessed as inhibition of cell proliferation after 24 hr by MTT assay; type: functional, cell-based; settings: MCF7, 24 h
[1] = Anticancer activity against Homo sapiens (human) NCI lung cancer cell assessed as inhibition of cell proliferation after 24 hr by MTT assay; type: functional, cell-based; settings: Cancer cell lines

| SMILES | IC50 (HEK293) | IC50 (MCF7) | IC50 [1] |
| --- | --- | --- | --- |
| CN1CCN(c2nc(-c3ccccc3)c(-c3nc4ccccc4c(=O)n3-c3ccccc3)s2)CC1 | 860 nM | 5840 nM | 9890 nM |
| O=C(c1ccccc1)N1CCN(c2nc(-c3ccccc3)c(-c3nc4ccccc4c(=O)n3-c3ccccc3)s2)CC1 | 420 nM | 19900 nM | 13400 nM |
| O=c1c2ccccc2nc(-c2sc(N3CCNCC3)nc2-c2ccccc2)n1-c1ccccc1 | 740 nM | 46700 nM | 2660 nM |
| CN1CCN(c2nc(-c3ccccc3)c(-c3nc4ccccc4c(=O)n3Nc3ccccc3)s2)CC1 | 3030 nM | 160 nM | 1110 nM |
| O=C(c1ccccc1)N1CCN(c2nc(-c3ccccc3)c(-c3nc4ccccc4c(=O)n3Nc3ccccc3)s2)CC1 | 800 nM | 2490 nM | 5590 nM |
| COc1ccc(Nn2c(-c3sc(N4CCNCC4)nc3-c3ccccc3)nc3ccccc3c2=O)cc1 | 1110 nM | 11400 nM | 2920 nM |
| O=C(c1ccccc1)N1CCN(c2nc(-c3ccccc3)c(-c3nc4ccccc4c(=O)n3-c3ccc(Cl)cc3)s2)CC1 | 690 nM | > 100000 nM | 15600 nM |
| CN1CCN(c2nc(-c3ccccc3)c(-c3nc4ccccc4c(=O)n3-c3ccc(Cl)cc3)s2)CC1 | 940 nM | 1970 nM | > 100000 nM |
| O=c1c2ccccc2nc(-c2sc(N3CCNCC3)nc2-c2ccccc2)n1-c1ccc(Cl)cc1 | 14400 nM | > 100000 nM | 6100 nM |
| COc1ccccc1-n1c(-c2sc(N3CCN(C)CC3)nc2-c2ccccc2)nc2ccccc2c1=O | 670 nM | 1500 nM | 9430 nM |
| COc1ccccc1-n1c(-c2sc(N3CCNCC3)nc2-c2ccccc2)nc2ccccc2c1=O | 550 nM | 3700 nM | 4330 nM |
| COc1ccccc1-n1c(-c2sc(N3CCN(C(=O)c4ccccc4)CC3)nc2-c2ccccc2)nc2ccccc2c1=O | 2290 nM | 660 nM | 5930 nM |
| CN1CCN(c2nc(-c3ccccc3)c(-c3nc4ccccc4c(=O)n3-c3ccccc3[N+](=O)[O-])s2)CC1 | 810 nM | 8900 nM | 6720 nM |
| O=c1c2ccccc2nc(-c2sc(N3CCNCC3)nc2-c2ccccc2)n1-c1ccccc1[N+](=O)[O-] | 1070 nM | 5860 nM | 8390 nM |
| O=C(c1ccccc1)N1CCN(c2nc(-c3ccccc3)c(-c3nc4ccccc4c(=O)n3-c3ccccc3[N+](=O)[O-])s2)CC1 | 730 nM | 6490 nM | 11000 nM |
| O=c1[nH]cc(F)c(=O)[nH]1 [FLUOROURACIL] | 2150 nM | 1250 nM | 2300 nM |
| CN(Cc1cnc2nc(N)nc(N)c2n1)c1ccc(C(=O)N[C@@H](CCC(=O)O)C(=O)O)cc1 [METHOTREXATE] | 1270 nM | 2260 nM | 2200 nM |
